Results on five molecules are retold here after ChEMBL document CHEMBL1201862, “PubChem BioAssay data set” (2004).

Active and inactive are the calls of the source.

Holding throughout (format): functional
Assay [1] has as its target T1, Apoptotic protease-activating factor 1 (Homo sapiens, UniProt O14727).
T1 sequence (O14727 whole entry): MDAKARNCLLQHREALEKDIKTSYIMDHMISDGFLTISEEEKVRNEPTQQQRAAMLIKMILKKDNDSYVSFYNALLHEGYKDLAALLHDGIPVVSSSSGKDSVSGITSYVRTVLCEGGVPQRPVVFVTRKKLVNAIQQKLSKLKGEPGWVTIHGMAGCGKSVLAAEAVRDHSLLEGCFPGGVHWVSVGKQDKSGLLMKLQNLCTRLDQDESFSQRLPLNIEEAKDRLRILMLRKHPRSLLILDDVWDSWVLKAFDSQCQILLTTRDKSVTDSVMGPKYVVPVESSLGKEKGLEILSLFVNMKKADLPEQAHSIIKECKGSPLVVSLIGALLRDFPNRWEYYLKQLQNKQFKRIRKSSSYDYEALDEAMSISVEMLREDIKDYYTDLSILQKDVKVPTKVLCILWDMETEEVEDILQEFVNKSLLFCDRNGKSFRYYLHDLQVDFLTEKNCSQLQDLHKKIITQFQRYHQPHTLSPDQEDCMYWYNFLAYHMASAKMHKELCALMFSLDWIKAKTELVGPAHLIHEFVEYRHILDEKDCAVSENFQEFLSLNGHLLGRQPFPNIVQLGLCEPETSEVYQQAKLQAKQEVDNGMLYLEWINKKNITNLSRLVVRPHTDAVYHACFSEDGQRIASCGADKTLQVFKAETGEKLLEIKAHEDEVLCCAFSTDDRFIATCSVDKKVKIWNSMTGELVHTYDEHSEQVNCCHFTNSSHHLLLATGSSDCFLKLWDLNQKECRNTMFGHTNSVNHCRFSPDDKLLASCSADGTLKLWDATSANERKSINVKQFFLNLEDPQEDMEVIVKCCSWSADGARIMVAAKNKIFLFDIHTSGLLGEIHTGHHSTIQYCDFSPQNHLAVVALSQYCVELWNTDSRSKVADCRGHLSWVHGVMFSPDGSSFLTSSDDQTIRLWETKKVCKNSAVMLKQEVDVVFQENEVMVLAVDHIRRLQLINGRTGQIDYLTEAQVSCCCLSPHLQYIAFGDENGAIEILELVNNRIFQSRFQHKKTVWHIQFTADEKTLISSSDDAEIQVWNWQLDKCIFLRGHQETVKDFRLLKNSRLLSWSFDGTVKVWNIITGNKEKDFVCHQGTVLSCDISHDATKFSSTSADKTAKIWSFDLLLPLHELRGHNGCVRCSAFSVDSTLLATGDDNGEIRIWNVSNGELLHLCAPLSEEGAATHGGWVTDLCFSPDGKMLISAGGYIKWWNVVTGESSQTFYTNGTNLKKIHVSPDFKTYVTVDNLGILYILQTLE

For assay [2], the target named is Proto-oncogene tyrosine-protein kinase receptor Ret (Homo sapiens, UniProt P07949).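 Note: measured within a kinome-wide profiling panel, RET as the panel member.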
The target of assay [3] is Serine/threonine-protein kinase PAK 4 (Homo sapiens, UniProt O96013).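 Note: value obtained within a kinome profiling panel in which PAK4 was one of the panel members.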
Assay [4] concerns the target Mitogen-activated protein kinase 9 (Homo sapiens, UniProt P45984).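 Note: value from a kinome panel profiling assay, MAPK9 panel entry.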
The target of assay [5] is Mitogen-activated protein kinase kinase kinase kinase 2 (Homo sapiens, UniProt Q12851).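 Note: measured as one member of a kinome-wide kinase panel, with MAP4K2 as the panel entry.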
In assay [6] the target is Hepatocyte growth factor receptor (Homo sapiens, UniProt P08581).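 Note: kinase panel profiling across the kinome, with MET as the panel member.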
Assay [7] addresses Vascular endothelial growth factor receptor 2 (Homo sapiens, UniProt P35968).
For assay [8], the target named is BDNF/NT-3 growth factors receptor (Homo sapiens, UniProt Q16620).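 Note: NTRK2 measured as one member of a broad kinome-wide kinase profiling panel.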
The target in another assay is T2, Caspase-3 (Homo sapiens, UniProt P42574).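 Note: Dose-response selectivity test against caspase-3 for candidate inhibitors of sentrin-specific proteases (SENPs).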
T2 sequence (P42574 whole entry): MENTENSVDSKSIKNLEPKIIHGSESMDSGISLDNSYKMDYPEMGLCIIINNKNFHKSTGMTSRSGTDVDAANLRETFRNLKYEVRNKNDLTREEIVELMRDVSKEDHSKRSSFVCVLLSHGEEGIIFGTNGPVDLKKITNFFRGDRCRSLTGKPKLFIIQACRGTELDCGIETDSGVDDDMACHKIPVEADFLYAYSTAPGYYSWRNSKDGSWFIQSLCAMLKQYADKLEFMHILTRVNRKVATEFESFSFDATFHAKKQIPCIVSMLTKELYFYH

Assay [9] concerns the target T3, Sentrin-specific protease 7 (Homo sapiens, UniProt Q9BQF6).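 Note: Luminescence-based dose-response confirmation of ultra-high-throughput screening hits, measuring inhibition of SENP7.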
T3 sequence (Q9BQF6 whole entry): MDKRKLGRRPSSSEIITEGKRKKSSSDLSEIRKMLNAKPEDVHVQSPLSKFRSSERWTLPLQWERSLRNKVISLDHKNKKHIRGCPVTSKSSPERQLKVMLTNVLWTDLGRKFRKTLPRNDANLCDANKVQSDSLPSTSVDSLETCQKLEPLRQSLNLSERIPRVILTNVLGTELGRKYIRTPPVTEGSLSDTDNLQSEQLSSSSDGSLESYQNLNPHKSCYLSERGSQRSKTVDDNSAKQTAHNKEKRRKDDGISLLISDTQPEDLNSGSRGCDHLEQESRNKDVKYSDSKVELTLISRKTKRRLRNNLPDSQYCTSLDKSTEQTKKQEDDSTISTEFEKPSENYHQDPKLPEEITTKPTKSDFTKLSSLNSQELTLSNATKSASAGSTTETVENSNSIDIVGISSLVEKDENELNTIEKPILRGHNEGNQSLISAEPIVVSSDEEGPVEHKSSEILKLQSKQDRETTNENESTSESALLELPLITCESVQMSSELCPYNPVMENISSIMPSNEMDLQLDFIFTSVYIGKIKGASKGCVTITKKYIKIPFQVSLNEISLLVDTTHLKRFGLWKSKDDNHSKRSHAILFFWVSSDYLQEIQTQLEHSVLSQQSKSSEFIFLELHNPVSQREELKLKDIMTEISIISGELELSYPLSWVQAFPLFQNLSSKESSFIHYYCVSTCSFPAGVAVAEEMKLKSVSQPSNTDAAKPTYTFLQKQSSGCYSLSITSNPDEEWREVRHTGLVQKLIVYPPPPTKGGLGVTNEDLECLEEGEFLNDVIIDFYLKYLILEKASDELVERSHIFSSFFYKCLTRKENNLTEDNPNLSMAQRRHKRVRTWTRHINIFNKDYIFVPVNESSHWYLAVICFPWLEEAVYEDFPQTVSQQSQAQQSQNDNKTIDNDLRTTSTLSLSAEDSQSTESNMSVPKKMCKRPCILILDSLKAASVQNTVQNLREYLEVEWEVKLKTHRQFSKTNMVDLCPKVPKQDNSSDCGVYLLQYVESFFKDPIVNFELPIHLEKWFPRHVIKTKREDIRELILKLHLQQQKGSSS

For a further assay, the system named is INS1. Nature of the assay: INS-1E survival protection against cytokine death – cell-based, luminescence, retest, dose response (AID 449756).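 Note: cell death triggered by IL-1 beta plus TNF-alpha plus IFN-gamma mixture; protective hits raise ATP signal compared with cytokine alone wells.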 The conditions noted are these: Rattus norvegicus.

Chain of Vascular endothelial growth factor receptor 2 (P35968 whole entry): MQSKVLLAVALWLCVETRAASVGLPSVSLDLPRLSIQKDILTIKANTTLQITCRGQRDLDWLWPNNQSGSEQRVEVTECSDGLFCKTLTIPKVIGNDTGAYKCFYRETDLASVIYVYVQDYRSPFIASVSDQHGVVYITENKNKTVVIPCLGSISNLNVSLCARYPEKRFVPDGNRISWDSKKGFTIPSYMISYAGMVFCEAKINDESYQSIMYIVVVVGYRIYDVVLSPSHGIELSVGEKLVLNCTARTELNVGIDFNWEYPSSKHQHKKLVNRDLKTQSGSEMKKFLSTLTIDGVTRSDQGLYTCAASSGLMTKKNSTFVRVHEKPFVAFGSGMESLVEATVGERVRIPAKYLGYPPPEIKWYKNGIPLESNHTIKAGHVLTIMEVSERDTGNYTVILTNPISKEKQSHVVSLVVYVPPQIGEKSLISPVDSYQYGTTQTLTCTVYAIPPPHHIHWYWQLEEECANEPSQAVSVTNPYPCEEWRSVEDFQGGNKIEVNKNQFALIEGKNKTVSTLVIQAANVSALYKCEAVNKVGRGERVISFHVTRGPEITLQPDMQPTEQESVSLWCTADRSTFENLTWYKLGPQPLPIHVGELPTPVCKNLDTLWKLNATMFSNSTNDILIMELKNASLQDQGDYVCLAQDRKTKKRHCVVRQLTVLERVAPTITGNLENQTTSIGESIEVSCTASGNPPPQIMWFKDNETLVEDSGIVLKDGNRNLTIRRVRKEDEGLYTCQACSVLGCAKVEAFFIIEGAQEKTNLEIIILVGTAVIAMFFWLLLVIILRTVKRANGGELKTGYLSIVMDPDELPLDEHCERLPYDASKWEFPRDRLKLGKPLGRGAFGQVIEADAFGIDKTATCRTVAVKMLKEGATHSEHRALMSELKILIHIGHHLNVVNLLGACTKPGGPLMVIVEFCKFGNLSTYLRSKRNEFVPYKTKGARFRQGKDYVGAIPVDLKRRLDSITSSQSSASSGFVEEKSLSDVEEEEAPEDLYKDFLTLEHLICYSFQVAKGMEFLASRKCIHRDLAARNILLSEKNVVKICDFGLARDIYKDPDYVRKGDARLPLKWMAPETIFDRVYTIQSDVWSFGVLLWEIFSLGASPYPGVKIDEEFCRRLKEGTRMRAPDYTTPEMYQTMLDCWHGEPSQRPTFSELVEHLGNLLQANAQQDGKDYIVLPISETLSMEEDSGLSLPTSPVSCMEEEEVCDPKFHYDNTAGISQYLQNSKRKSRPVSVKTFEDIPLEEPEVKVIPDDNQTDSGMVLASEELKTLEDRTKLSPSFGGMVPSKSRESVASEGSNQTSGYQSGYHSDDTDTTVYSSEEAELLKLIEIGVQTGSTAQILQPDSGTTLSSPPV
Chain of BDNF/NT-3 growth factors receptor (Q16620 whole entry): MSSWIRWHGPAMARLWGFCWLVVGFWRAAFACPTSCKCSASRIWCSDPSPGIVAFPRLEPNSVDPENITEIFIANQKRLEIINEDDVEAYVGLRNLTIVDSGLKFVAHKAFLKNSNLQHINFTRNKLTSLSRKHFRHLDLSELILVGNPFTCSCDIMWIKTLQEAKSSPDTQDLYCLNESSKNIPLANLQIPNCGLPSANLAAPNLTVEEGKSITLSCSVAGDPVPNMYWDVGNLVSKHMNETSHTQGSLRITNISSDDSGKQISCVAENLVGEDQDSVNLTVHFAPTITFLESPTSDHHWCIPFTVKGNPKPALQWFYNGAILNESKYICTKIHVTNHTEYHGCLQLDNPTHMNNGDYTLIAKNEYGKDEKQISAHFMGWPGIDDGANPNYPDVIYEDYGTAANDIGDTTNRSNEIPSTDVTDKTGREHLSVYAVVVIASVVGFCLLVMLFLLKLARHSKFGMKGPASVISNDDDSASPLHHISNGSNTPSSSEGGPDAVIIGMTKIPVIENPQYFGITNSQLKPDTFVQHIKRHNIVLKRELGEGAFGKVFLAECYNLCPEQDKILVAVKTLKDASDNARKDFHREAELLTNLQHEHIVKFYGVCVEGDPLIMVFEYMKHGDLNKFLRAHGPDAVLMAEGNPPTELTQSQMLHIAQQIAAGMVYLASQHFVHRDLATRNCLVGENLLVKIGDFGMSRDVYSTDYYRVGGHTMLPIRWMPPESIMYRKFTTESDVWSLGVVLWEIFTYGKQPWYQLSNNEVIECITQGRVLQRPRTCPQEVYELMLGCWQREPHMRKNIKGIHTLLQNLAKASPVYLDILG
Chain of Mitogen-activated protein kinase kinase kinase kinase 2 (Q12851 whole entry): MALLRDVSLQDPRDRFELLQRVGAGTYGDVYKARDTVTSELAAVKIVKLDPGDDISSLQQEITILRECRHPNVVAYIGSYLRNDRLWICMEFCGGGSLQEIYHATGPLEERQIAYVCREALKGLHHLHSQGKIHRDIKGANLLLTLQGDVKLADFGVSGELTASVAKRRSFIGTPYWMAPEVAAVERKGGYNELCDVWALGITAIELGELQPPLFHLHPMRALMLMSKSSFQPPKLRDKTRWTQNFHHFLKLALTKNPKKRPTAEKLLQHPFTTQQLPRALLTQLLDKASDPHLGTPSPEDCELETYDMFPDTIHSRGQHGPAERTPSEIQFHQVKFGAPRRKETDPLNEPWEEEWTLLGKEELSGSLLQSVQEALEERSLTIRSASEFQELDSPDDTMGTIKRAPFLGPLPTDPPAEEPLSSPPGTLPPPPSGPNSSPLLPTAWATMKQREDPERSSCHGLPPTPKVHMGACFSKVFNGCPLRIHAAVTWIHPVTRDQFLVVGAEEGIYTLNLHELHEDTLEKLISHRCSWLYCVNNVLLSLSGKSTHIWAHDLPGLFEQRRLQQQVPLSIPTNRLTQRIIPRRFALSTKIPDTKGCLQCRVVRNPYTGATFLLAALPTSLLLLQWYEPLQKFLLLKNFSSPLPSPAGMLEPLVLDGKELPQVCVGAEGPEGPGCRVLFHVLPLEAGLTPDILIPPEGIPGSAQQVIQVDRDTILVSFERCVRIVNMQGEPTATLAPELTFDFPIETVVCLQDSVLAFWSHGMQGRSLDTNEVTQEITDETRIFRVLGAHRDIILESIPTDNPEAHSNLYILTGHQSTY
Chain of Serine/threonine-protein kinase PAK 4 (O96013 whole entry): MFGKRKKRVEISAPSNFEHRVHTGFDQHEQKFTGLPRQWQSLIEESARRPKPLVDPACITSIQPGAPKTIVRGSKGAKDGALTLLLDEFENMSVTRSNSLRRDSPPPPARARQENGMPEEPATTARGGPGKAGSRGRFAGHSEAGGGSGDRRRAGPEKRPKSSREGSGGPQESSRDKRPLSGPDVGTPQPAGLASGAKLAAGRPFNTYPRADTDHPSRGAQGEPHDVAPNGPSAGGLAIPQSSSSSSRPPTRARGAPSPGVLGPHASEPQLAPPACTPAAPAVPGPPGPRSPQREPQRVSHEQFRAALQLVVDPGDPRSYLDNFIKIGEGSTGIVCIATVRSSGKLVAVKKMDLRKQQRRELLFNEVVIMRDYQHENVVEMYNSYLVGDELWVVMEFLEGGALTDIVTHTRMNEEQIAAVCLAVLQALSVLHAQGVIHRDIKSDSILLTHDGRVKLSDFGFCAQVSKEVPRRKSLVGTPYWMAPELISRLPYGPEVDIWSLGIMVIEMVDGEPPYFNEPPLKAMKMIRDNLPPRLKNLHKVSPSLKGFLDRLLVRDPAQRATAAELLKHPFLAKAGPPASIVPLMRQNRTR
Chain of Hepatocyte growth factor receptor (P08581 whole entry): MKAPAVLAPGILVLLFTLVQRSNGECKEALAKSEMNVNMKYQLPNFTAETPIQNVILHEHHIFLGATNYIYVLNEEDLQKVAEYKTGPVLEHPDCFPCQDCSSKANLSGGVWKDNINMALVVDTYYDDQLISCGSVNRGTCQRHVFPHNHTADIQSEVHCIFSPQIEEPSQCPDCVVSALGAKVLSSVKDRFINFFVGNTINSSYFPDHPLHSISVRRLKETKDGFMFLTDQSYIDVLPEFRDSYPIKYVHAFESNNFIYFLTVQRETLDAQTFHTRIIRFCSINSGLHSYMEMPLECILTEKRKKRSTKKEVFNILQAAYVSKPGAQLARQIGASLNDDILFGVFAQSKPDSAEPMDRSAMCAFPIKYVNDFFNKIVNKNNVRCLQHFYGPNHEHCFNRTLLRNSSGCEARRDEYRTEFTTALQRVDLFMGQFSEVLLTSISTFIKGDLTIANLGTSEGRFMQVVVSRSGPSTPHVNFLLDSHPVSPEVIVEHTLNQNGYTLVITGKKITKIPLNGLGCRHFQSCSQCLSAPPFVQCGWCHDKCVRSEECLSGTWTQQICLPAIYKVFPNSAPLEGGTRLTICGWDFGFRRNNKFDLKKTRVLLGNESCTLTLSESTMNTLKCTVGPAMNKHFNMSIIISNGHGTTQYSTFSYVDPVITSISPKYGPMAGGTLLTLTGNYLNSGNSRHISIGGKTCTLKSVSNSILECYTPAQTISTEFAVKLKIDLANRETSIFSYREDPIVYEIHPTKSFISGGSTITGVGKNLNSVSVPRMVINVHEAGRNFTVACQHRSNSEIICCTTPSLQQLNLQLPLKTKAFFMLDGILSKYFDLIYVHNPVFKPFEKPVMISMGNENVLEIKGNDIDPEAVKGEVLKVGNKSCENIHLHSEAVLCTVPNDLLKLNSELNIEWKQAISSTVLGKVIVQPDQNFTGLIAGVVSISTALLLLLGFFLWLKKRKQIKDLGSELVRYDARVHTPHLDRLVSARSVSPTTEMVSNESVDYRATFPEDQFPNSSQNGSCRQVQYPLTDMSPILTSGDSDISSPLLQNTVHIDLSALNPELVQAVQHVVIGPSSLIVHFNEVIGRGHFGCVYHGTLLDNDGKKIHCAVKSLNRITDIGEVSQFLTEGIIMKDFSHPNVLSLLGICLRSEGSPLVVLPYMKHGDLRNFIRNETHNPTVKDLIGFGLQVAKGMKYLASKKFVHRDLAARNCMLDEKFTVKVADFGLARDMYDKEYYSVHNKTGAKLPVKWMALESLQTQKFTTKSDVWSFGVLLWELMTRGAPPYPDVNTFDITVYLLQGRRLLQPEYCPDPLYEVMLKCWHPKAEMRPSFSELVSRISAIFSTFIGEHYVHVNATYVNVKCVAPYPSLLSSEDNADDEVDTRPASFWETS

For the molecule `CCCCCCCCCCC[N+](C)(C)CC/C=C1/c2ccccc2Sc2ccc(Cl)cc21`, in [1], the IC50 is 11.6 µM (active).
For `CCn1c(-c2nonc2N)nc2cncc(C(=O)N3CCC(N)C3)c21` (configuration not stated), the Ki was > 3.16 µM (inactive) in assay [2]; > 5.01 µM (inactive) in assay [3]; > 3.98 µM (inactive) in assay [4]; > 2.51 µM (inactive) in assay [5]; > 2.51 µM (inactive) in assay [6]; > 2 µM (inactive) in assay [7]. For the same molecule, the Ki in assay [8] is > 3.98 µM (inactive).
Turning to `Cc1cc(C)c[n+](C2=C([N-]S(=O)(=O)c3cccs3)C(=O)c3ccccc3C2=O)c1`, the results for the half-inhibitory concentration (IC50) (at Caspase-3; in assay [9]) were 81.9 µM (active) and 41.2 µM (active), respectively. The AC50 with INS1 is 3.12 µM (active).
With `Cc1[nH]nc2ccc(-c3cncc(OCC(N)Cc4c[nH]c5ccccc45)c3)cc12` (configuration not stated), the Ki in assay [2] was > 1.26 µM (inactive); in assay [3], 1.58 µM (active); in [4] it was 2 µM (active); in [5], 0.0251 µM (active); in assay [6], > 3.16 µM (inactive); in assay [7] it was 3.98 µM (active). Further, the Ki in [8] was > 5.01 µM (inactive).
`COC(=O)c1ccccc1NC1=C/C(=N\S(=O)(=O)c2cccs2)c2ccccc2C1=O`: the IC50 on Caspase-3 is 68.4 µM (active); in [9], 32.3 µM (active); in assay [1], 1.82 µM (active). Moreover, the half-maximal activity concentration (AC50) in the assay with INS1 was 2.19 µM (active).

The term IC50 denotes the point on the concentration scale where inhibition reaches its midpoint. One may read the Ki as a measure of affinity in units of concentration, obtained from inhibition or displacement. For orientation: AC50 means the concentration at which the activity in the assay is half-maximal.
